Results from ChEMBL document CHEMBL4428125, “8-Substituted 1,3-dimethyltetrahydropyrazino[2,1-f]purinediones: Water-soluble adenosine receptor antagonists and monoamine oxidase B inhibitors” (Bioorg Med Chem, 2016).

Tests used:
[1] = biological target: T1, Adenosine receptor A2b (Homo sapiens) (UniProt P29275); assay: Displacement of [3H]PSB-603 from human A2B receptor expressed in CHO cell membrane at 1 uM relative to control; type: cell membranes
T1 sequence (whole entry): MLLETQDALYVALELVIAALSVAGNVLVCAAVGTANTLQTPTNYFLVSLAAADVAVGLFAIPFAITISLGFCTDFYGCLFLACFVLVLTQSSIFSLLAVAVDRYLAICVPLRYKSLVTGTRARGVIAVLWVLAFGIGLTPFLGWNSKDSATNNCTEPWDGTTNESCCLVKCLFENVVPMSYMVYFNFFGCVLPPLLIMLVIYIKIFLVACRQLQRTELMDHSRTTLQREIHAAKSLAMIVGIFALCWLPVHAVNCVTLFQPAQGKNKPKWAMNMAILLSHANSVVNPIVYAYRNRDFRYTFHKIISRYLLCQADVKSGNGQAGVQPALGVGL

[2] = biological target: T2, Amine oxidase [flavin-containing] A (Homo sapiens, UniProt P21397); assay: Inhibition of recombinant human MAO-A expressed in baculovirus infected BTI insect cells preincubated for 30 mins followed by addition of p-tyramine as substrate measured over 45 mins by Amplex Red MAO assay
T2 sequence (P21397 whole entry): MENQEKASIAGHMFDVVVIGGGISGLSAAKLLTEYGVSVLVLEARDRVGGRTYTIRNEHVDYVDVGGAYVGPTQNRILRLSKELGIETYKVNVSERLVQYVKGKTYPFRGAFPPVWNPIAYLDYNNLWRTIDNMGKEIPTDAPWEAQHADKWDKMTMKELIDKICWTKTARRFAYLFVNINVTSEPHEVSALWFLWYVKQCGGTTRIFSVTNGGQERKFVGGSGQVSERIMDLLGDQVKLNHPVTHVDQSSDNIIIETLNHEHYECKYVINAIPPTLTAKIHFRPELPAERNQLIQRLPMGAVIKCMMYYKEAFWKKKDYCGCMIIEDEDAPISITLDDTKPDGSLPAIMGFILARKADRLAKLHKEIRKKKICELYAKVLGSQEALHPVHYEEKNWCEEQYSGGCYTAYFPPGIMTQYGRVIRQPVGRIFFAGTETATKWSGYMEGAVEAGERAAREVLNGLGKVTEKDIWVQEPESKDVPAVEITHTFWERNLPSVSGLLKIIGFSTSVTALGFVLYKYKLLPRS

[3] = biological target: T3, Adenosine receptor A2b (Homo sapiens, UniProt P29275); assay: Displacement of [3H]PSB-603 from human A2B receptor expressed in CHO cell membrane; type: cell membranes
T3 sequence (P29275 whole entry): T1 sequence (whole entry)

[4] = biological target: T4, Adenosine receptor A1 (Rattus norvegicus) (UniProt P25099); assay: Displacement of [3H]CCPA from A1 receptor in rat brain cortex membranes at 1.5 uM by liquid scintillation counting method; type: cell membranes
T4 sequence (whole entry): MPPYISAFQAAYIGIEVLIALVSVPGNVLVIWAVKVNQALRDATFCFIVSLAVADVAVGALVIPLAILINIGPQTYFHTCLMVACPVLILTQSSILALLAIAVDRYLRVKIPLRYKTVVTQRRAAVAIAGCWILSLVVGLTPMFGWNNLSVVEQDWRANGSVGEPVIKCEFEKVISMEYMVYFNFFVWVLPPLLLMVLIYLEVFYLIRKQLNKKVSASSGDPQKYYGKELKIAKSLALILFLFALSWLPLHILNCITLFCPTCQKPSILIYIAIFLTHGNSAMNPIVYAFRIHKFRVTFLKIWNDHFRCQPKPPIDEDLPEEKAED

[5] = biological target: T5, Amine oxidase [flavin-containing] B (Homo sapiens, UniProt P27338); assay: Inhibition of recombinant human MAO-B expressed in baculovirus infected BTI insect cells preincubated for 30 mins followed by addition of p-tyramine as substrate measured over 45 mins by Amplex Red MAO assay
T5 sequence (P27338 whole entry): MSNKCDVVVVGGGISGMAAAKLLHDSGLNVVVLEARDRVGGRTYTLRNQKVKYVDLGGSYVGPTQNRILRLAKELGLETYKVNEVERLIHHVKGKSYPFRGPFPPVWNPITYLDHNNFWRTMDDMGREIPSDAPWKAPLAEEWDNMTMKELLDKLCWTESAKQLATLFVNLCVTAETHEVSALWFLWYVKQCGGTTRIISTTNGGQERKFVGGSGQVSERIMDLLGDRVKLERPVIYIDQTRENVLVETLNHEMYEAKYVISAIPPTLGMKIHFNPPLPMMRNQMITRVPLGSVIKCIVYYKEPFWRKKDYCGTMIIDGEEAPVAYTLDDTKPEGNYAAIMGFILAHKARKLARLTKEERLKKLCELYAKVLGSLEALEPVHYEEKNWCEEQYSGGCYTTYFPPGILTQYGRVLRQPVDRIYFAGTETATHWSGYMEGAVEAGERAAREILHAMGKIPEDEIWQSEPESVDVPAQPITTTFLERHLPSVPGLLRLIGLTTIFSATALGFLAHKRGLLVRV

[6] = biological target: Adenosine receptor A2a (Rattus norvegicus, UniProt P30543); assay: Displacement of [3H]MSX from A2A receptor in rat brain striatum membranes measured after 30 mins by liquid scintillation counting method; type: cell membranes
Chain of Adenosine receptor A2a (P30543 whole entry): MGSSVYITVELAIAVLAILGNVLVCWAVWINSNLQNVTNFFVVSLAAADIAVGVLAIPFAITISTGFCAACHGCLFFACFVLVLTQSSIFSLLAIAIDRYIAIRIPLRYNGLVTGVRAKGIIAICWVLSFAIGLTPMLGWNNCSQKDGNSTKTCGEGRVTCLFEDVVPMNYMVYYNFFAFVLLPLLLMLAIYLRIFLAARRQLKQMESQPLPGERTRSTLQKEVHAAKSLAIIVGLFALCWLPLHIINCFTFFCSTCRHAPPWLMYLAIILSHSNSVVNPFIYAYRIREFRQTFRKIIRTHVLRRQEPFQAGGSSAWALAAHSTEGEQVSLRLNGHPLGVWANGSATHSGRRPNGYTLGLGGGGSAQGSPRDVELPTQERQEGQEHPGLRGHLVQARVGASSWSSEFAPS

[7] = biological target: T2, Amine oxidase [flavin-containing] A; assay: Inhibition of recombinant human MAO-A expressed in baculovirus infected BTI insect cells at 10 uM preincubated for 30 mins followed by addition of p-tyramine as substrate measured over 45 mins by Amplex Red MAO assay relative to control; details: 0.75 h
[8] = biological target: T6, Adenosine receptor A3 (Homo sapiens, UniProt P0DMS8); assay: Displacement of [3H]PSB-11 from human A3 receptor expressed in CHO cell membrane by liquid scintillation counting method relative to control; type: cell membranes
T6 sequence (P0DMS8 whole entry): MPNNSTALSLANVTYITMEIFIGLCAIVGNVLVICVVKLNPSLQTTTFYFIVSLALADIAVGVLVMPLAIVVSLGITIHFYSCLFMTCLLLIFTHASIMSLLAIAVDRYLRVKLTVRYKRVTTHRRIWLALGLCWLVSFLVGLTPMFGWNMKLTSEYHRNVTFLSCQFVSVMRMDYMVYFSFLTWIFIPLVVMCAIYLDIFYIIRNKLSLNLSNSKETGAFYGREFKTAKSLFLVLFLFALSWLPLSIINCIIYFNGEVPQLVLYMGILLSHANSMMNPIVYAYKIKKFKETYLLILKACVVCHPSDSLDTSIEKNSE

[9] = biological target: T7, Adenosine receptor A1 (Rattus norvegicus, UniProt P25099); assay: Displacement of [3H]CCPA from A1 receptor in rat brain cortex membranes by liquid scintillation counting method; type: cell membranes
T7 sequence (P25099 whole entry): T4 sequence (whole entry)

[10] = biological target: T8, Adenosine receptor A3 (Homo sapiens) (UniProt P0DMS8); assay: Displacement of [3H]PSB-11 from human A3 receptor expressed in CHO cell membrane at 10 uM by liquid scintillation counting method relative to control relative to control; type: cell membranes
T8 sequence (whole entry): T6 sequence (P0DMS8 whole entry)

[11] = biological target: T5, Amine oxidase [flavin-containing] B; assay: Inhibition of recombinant human MAO-B expressed in baculovirus infected BTI insect cells at 10 uM preincubated for 30 mins followed by addition of p-tyramine as substrate measured over 45 mins by Amplex Red MAO assay relative to control; details: 0.75 h

Compound	Activity [1] [%]	IC50 [2] [nM]	Ki [3] [nM]	Activity [4] [%]	IC50 [5] [nM]	Ki [6] [nM]	inhibition at 10 µM [7] [%]	Ki [8] [nM]	Ki [9] [nM]	Activity [10] [%]	inhibition at 10 µM [11] [%]
Cn1c(=O)c2c(nc3n2CCN(CCc2ccc(Cl)c(Cl)c2)C3)n(C)c1=O	11	> 10000	> 1000	35	802	2850	14	15000	> 1500		
Cn1c(=O)c2c(nc3n2CCN(CCOc2ccc(Cl)c(Cl)c2)C3)n(C)c1=O	21	> 10000	> 1000		> 10000	2420	14	> 10000	1250	36	27
Cn1c(=O)c2c(nc3n2CCN(CCc2cccc(Cl)c2)C3)n(C)c1=O	21	> 10000	> 1000	14		1310	13	> 10000	> 1500	10	61
Cn1c(=O)c2c(nc3n2CCN(CCc2ccccc2Cl)C3)n(C)c1=O	13	> 10000	> 1000	32	723	2730	11	> 10000	> 1500	43	
Cn1c(=O)c2c(nc3n2CCN(c2cccc4ccccc24)C3)n(C)c1=O	10	> 10000	> 1000	17	828	2940	16	> 10000	> 1500	29	
COc1cccc(N2CCn3c(nc4c3c(=O)n(C)c(=O)n4C)C2)c1	21	> 10000	> 1000	16	1160	1010	3	> 10000	> 1500	32	
Cn1c(=O)c2c(nc3n2CCN([C@@H]2CCc4ccccc42)C3)n(C)c1=O	8		> 1000	28	2150	5080		> 10000	> 1500	38	
Cn1c(=O)c2c(nc3n2CCN(c2ccccc2)C3)n(C)c1=O	8	> 10000	> 1000	12		3830	-1	> 10000	> 1500	32	61
CC(CN1CCn2c(nc3c2c(=O)n(C)c(=O)n3C)C1)c1ccccc1 (stereo not drawn)	11	> 10000	> 1000	27	> 10000	4520	23	> 10000	> 1500	31	11
Cn1c(=O)c2c(nc3n2CCN(c2ccc(F)cc2)C3)n(C)c1=O	9		> 1000	4	2230	2130		> 10000	> 1500	24	
Cn1c(=O)c2c(nc3n2CCN(CCc2c(Cl)cccc2Cl)C3)n(C)c1=O	22		> 1000	34	932	3050		> 10000	> 1500	10	
Cn1c(=O)c2c(nc3n2CCN(CCc2cccc(C(F)(F)F)c2)C3)n(C)c1=O	12		> 1000	6	10000	2580		> 10000	> 1500	29	63
Cn1c(=O)c2c(nc3n2CCN(c2cccc(F)c2)C3)n(C)c1=O	3	> 10000	> 1000	20	1500	2920	8	> 10000	> 1500	18	
